Assay [1] has as its target wild-type Epidermal Growth Factor Receptor (EGFR) (Homo sapiens (Human), UniProt P00533). In words: WT-EGFR kinase assay (TR-FRET, 2 mM ATP). The following applies: median or individual measurements, Table 3, read-out: EGFR Wildtyp-2mM ATP IC50 [mol/l] (median). It counts as biochemical. The source says: Inhibitory activity of compounds of the present invention against wild-type Epidermal Growth Factor Receptor (EGFR) was quantified employing the TR-FRET based EGFR assay as described in the following paragraphs.
Recombinant fusion protein of N-terminal Glutathion-S-Transferase (GST) and a fragment of human EGFR (amino acids R669 to A1210), expressed in Sf9 insect cells and purified via affinity chromatography using Glutathion Sepharose as described above, was used as kinase. As substrate for the kinase reaction the biotinylated peptide biotin-Ahx-AEEEEYFELVAKKK (C-terminus in amide form) was used which can be purchased e.g. form the company Biosynthan GmbH (Berlin-Buch, Germany).
For the assay 50 nl of a 100 fold concentrated solution of the test compound in DMSO was pipetted into either a black low volume 384 well microtiter plate or a black 1536 well microtiter plate (both Greiner Bio-One, Frickenhausen, Germany), 2 μL of a solution of EGFR in aqueous assay buffer [50 mM Hepes pH 7.0, 10 mM MgCl2, 1 mM dithiothreitol, 0.5 mM EGTA, 0.3 mM activated sodium ortho-vanadate, 0.005% (w/v) bovine serum albumin, 0.005% (v/v) Tween-20] were added and the mixture was incubated for 15 min at 22° C. to allow pre-binding of the test compounds to the enzyme before the start of the kinase reaction. Then the kinase reaction was started by the addition of 3 μL of a solution of adenosine-tri-phosphate (ATP, 3.33 mM=>final conc. in the 5 μL assay volume is 2 mM) and substrate (1.67 μM=>final conc. in the 5 μL assay volume is 1 μM) in assay buffer and the resulting mixture was incubated for a reaction time of 30 min at 22° C. The concentration of EGFR was adjusted depending of the activity of the enzyme lot and was chosen appropriate to have the assay in the linear range, typical concentration was 7.6 pg/μL. The reaction was stopped by the addition of 3 μL of a solution of HTRF detection reagents (83.3 nM streptavidine-XL665 [Cisbio Bioassays, Codolet, France] and 1.67 nM PT66-Tb-Cryptate, a terbium-cryptate labelled anti-phospho-tyrosine antibody from Cisbio Bioassays [instead of the PT66-Tb-cryptate PT66-Eu-Chelate from Perkin Elmer can also be used]) in an aqueous EDTA-solution (133.3 mM EDTA, 0.2% (w/v) bovine serum albumin in 50 mM HEPES pH 7.5).
The resulting mixture was incubated 1 h at 22° C. to allow the binding of the biotinylated phosphorylated peptide to the streptavidine-XL665 and the PT66-Tb-Cryptate. Subsequently the amount of phosphorylated substrate was evaluated by measurement of the resonance energy transfer from the PT66-Tb-Cryptate to the streptavidine-XL665. Therefore, the fluorescence emissions at 620 nm and 665 nm after excitation at 337 nm were measured in a HTRF reader, e.g. a Pherastar (BMG Labtechnologies, Offenburg, Germany) or a Viewlux (Perkin-Elmer). The ratio of the emissions at 665 nm and at […] was taken as the measure for the amount of phosphorylated substrate. The data were normalised (enzyme reaction without inhibitor=0% inhibition, all other assay components but no enzyme=100% inhibition).
(In TR-FRET formats the signal depends on donor and acceptor labels being close together.)

In a further assay the target is human CSNK1A1 (Homo sapiens (Human), UniProt P48729). In words: CSNK1A1 Assay 2 (ADP-Glo, 1 μM ATP). It counts as biochemical. Particulars: median, Table 2, read-out: CSNK1A1 Assay 2 IC50 [mol/l] (median). How it is done:
CSNK1A1-inhibitory activity of compounds of the present invention in presence of 1 μM adenosine-tri-phosphate (ATP) was quantified employing the CSNK1A1 assay as described in the following paragraphs. In essence, the enzyme activity is measured by quantification of the adenosine-di-phosphate (ADP), which is generated as a co-product of the enzyme reaction, via the “ADP-Glo™ Kinase Assay” kit from the company Promega. This detection system works as follows: In a first step the ATP not consumed in the kinase reaction is quantitatively converted to cAMP employing an adenylate cyclase (“ADP-Glo-reagent”), then the adenylate cyclase is stopped and the ADP generated in the kinase reaction converted to ATP which generates in a luciferase-based reaction a glow-luminescence signal (“Kinase Detection Reagent”).
Recombinant fusion protein of N-terminal Glutathion-S-Transferase (GST) and full-length human CSNK1A1, expressed by baculovirus infected insect cells and purified via Glutathion affinity chromatography, was purchased from Life Technologies (product no. PV4174) and used as enzyme. As substrate for the kinase reaction the biotinylated peptide biotin-Ahx-KRRRAL-pS-VASLPGL (C-terminus in amide form) was used which can be purchased e.g. from the company Biosyntan (Berlin-Buch, Germany).
For the assay 50 nl of a 100 fold concentrated solution of the test compound in DMSO was pipetted into a white 1536-well microtiter plate (Greiner Bio-One, Frickenhausen, Germany), 2 μL of a solution of CSNK1A1 in aqueous assay buffer [50 mM HEPES pH 7.5, 10% (v/v) glycerol, 10 mM MgCl2, 50 mM NaCl, 1 mM dithiothreitol, 0.01% (w/v) bovine serum albumin, 0.01% (v/v) Triton X-100] were added and the mixture was incubated for 15 min at 22° C. to allow pre-binding of the test compounds to the enzyme before the start of the kinase reaction. Then the kinase reaction was started by the addition of 3 μL of a solution of ATP (1.67 μM=>final conc. in the 5 μL assay volume is 1 μM) and peptide substrate (50 μM=>final conc. in the 5 μL assay volume is 30 μM) in assay buffer and the resulting mixture was incubated for a reaction time of 30 min at 22° C. The concentration of CSNK1A1 was adjusted depending of the activity of the enzyme lot and was chosen appropriate to have the assay in the linear range, a typical concentrations are about 0.0375 ng/μL. The reaction was stopped by the addition of 2.5 μL of “ADP-Glo-reagent” (1:1.5 fold diluted with water) and the resulting mixture was incubated at 22° C. for 1 h to convert the ATP not consumed in the kinase reaction completely […]. Subsequently 2.5 μL of the “kinase detection reagent” (1.2 fold more concentrated than recommended by the producer) were added, the resulting mixture was incubated at 22° C. for 1 h and then the luminescence measured with a suitable measurement instrument (e.g. Viewlux™ from Perkin-Elmer). The amount of emitted light was taken as a measure for the amount of ADP generated and thereby for the activity of the CSNK1A1.
The data were normalised (enzyme reaction without inhibitor=0% inhibition, all other assay components but no enzyme=100% inhibition).
Background: In ADP-Glo the light output rises with the ADP produced.

The structures appear in SMILES notation. Values joined by “and” are separate entries in the source; they are usually repeats but may differ in a detail not shown here. Equal entries are not always repeated.

wild-type Epidermal Growth Factor Receptor (EGFR), sequence (P00533 669-1210): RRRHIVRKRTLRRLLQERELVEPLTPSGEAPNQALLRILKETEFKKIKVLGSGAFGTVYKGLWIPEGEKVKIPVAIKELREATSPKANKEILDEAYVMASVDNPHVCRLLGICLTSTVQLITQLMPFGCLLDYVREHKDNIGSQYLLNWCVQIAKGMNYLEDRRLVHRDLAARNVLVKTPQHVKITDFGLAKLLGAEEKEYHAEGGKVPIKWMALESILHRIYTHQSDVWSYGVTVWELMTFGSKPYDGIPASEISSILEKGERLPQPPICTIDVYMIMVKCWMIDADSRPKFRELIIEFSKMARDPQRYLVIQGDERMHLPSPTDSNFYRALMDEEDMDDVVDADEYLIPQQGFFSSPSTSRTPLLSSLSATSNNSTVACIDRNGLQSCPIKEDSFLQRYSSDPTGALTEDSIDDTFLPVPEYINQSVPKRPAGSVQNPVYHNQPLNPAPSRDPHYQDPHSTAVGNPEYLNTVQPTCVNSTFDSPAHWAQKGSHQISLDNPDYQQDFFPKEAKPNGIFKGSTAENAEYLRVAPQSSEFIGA
human CSNK1A1, sequence (P48729 whole entry): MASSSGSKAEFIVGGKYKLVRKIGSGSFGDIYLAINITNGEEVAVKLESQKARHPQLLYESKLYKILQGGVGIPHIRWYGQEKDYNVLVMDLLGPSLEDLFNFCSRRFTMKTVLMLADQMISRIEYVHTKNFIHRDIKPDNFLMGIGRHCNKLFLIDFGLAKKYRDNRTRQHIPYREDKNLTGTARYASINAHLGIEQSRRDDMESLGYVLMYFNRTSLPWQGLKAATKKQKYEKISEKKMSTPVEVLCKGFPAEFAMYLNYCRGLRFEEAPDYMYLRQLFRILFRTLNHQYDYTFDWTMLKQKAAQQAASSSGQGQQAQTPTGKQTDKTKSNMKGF

For `Cc1cc2[nH]c(-c3ccnc(NC(=O)C(CC(F)F)c4ccc(F)cc4)c3)c(Nc3ccccc3F)c2c(=O)n1C` (racemic) [Example 31, 4,4-difluoro-N-{4-[3-(2-fluoroanilino)-5,6-dimethyl-4-oxo-4,5-dihydro-1H-pyrrolo[3,2-c]pyridin-2-yl]pyridin-2-yl}-2-(4-fluorophenyl)butanamide], the IC50 is over 20000 nM in assay [1] and 31 nM at human CSNK1A1.
Taken in the same sequence, the figures for `CN1CC(CC2CC2)c2[nH]c(-c3ccnc(NC(=O)Cc4ccc(F)cc4)c3)c(Nc3cscn3)c2C1=O` (racemic) [Example 49, N-{4-[(7RS)-7-(cyclopropylmethyl)-5-methyl-4-oxo-3-(1,3-thiazol-4-ylamino)-4,5,6,7-tetrahydro-1H-pyrrolo[3,2-c]pyridin-2-yl]pyridin-2-yl}-2-(4-fluorophenyl)acetamide] were over 20000 nM and 5.9 nM.
With `Cn1ccc2[nH]c(-c3ccnc(NC(=O)C(CC(F)F)c4ccc(F)cc4)c3)c(Nc3ccccc3)c2c1=O` (single isomer, unassigned) [Example 30, N-[4-(3-anilino-5-methyl-4-oxo-4,5-dihydro-1H-pyrrolo[3,2-c]pyridin-2-yl)pyridin-2-yl]-4,4-difluoro-2-(4-fluorophenyl)butanamide], the IC50 is > 20 µM (2×) and 3.9 µM and 5.1 µM and 5.5 µM and 7.2 µM and 15 µM and 10 µM in assay [1]; 3.7 nM at human CSNK1A1.
Regarding `CN1CC(CC(F)(F)F)c2[nH]c(-c3ccnc(NC(=O)C(CC(F)F)c4ccc(F)cc4)c3)c(Nc3cscn3)c2C1=O` (single isomer, unassigned) [Example 56, (2R or S)-4,4-difluoro-2-(4-fluorophenyl)-N-{4-[(7R or S)-5-methyl-4-oxo-3-[(1,3-thiazol-4-yl)amino]-7-(2,2,2-trifluoroethyl)-4,5,6,7-tetrahydro-1H-pyrrolo[3,2-c]pyridin-2-yl]pyridin-2-yl}butanamide], the IC50 in assay [1] was over 20000 nM; on human CSNK1A1, 7.7 nM.
With `CCc1c[nH]c(=O)c2c(Nc3ccccc3)c(-c3ccnc(NC(=O)C(CC(F)F)c4ccc(F)cc4)c3)[nH]c12` (racemic) [Example 5, N-[4-(3-anilino-7-ethyl-4-oxo-4,5-dihydro-1H-pyrrolo[3,2-c]pyridin-2-yl)pyridin-2-yl]-4,4-difluoro-2-(4-fluorophenyl)butanamide], the figures for the IC50 (in assay [1]; on human CSNK1A1) were 7300 nM and 7.2 nM, respectively.
Taken in the same sequence, the figures for `CC1CN(C)C(=O)c2c1[nH]c(-c1ccnc(NC(=O)Cc3ccc(F)cc3)c1)c2Nc1ccccc1` (single isomer, unassigned; (+)) [Example 8, (+)-N-{4-[3-anilino-5,7-dimethyl-4-oxo-4,5,6,7-tetrahydro-1H-pyrrolo[3,2-c]pyridin-2-yl]pyridin-2-yl}-2-(4-fluorophenyl)acetamide] were 3000 nM and 12 nM.
The matching figures for `Cc1cn(C)c(=O)c2c(Nc3ccccc3)c(-c3ccnc(NC(=O)C(C)c4ccc(F)cc4)c3)[nH]c12` (single isomer, unassigned) [Example 41, N-[4-(3-anilino-5,7-dimethyl-4-oxo-4,5-dihydro-1H-pyrrolo[3,2-c]pyridin-2-yl)pyridin-2-yl]-2-(4-fluorophenyl)propanamide]: 9100 nM and 100 nM.
For the compound `O=C1N[C@@H]2CCC[C@@H]2c2[nH]c(-c3ccnc(NC(=O)C(CC(F)F)c4ccc(F)cc4)c3)c(Nc3ccccc3)c21` (single isomer, unassigned; (+)) [Example 25, (+)-(2R or S)—N-{4-[cis-3-anilino-4-oxo-1,4,5,5a,6,7,8,8a-octahydrocyclopenta[b]pyrrolo[2,3-d]pyridin-2-yl]pyridin-2-yl}-4,4-difluoro-2-(4-fluorophenyl)butanamide], the values for the IC50 (in assay [1]; at human CSNK1A1) were over 20000 nM and 2.3 nM, respectively.
In the case of `CN1CC(CC(F)(F)F)c2[nH]c(-c3ccnc(NC(=O)Cc4ccc(F)cc4)c3)c(Nc3cscn3)c2C1=O` (single isomer, unassigned) [Example 48, 2-(4-fluorophenyl)-N-{4-[(7R or S)-5-methyl-4-oxo-3-(1,3-thiazol-4-ylamino)-7-(2,2,2-trifluoroethyl)-4,5,6,7-tetrahydro-1H-pyrrolo[3,2-c]pyridin-2-yl]pyridin-2-yl}acetamide], the IC50 was over 20000 nM in assay [1] and 7.5 nM on human CSNK1A1.
Taken in the same sequence, the figures for `CN1CC(CC(F)(F)F)c2[nH]c(-c3ccnc(NC(=O)Cc4ccc(F)cc4)c3)c(Nc3cscn3)c2C1=O` (racemic) [Example 46, 2-(4-fluorophenyl)-N-{4-[(7RS)-5-methyl-4-oxo-3-(1,3-thiazol-4-ylamino)-7-(2,2,2-trifluoroethyl)-4,5,6,7-tetrahydro-1H-pyrrolo[3,2-c]pyridin-2-yl]pyridin-2-yl}acetamide] were over 20000 nM and 23 nM.
Taken in the same sequence, the figures for `Cc1cn(C)c(=O)c2c(Nc3ccccc3)c(-c3ccnc(NC(=O)C(CC(F)F)c4ccc(F)cc4)c3)[nH]c12` (racemic) [Example 11, N-[4-(3-anilino-5,7-dimethyl-4-oxo-4,5-dihydro-1H-pyrrolo[3,2-c]pyridin-2-yl)pyridin-2-yl]-4,4-difluoro-2-(4-fluorophenyl)butanamide] were over 20000 nM and 19 nM.
The matching figures for `C[C@@H](C(=O)Nc1cc(-c2[nH]c3ccn(C)c(=O)c3c2Nc2ccccc2)ccn1)c1ccc(F)cc1` (single isomer, unassigned) [Example 27]: over 20000 nM and 21 nM.
As for `CN1CC(CC(F)(F)F)c2[nH]c(-c3ccnc(NC(=O)Cc4ccc(F)cc4)c3)c(Nc3ccccc3)c2C1=O` (racemic) [Example 14, N-{4-[3-anilino-5-methyl-4-oxo-7-(2,2,2-trifluoroethyl)-4,5,6,7-tetrahydro-1H-pyrrolo[3,2-c]pyridin-2-yl]pyridin-2-yl}-2-(4-fluorophenyl)acetamide], the IC50 stood at 1100 nM in assay [1] and 3.1 nM on human CSNK1A1.

Values taken from patent US20230365554A1, “SUBSTITUTED PYRROLO-PYRIDINONE DERIVATIVES AND THERAPEUTIC USES THEREOF” (The Broad Institute, Inc., priority 2020, published 2023).
